Assay results as given in patent publication US11427549B2, “Pyrimidinyloxy benzo-fused compounds as herbicides” (FMC Corporation, priority 2017, dated 2022).

Columns and labels:
[1] = system: ragweed (common ragweed, Ambrosia elatior); experiment: Test A preemergence, ragweed; format: in vivo; settings: Ambrosia artemisiifolia, pre-emergence, 240 h, 0 to 100 scale (0 no effect, 100 complete control), read-out: Plant response rating, Ragweed; for pest or weed control at 31 g/ha: 31 g ai/ha; for pest or weed control at 125 g/ha: 125 g ai/ha
[2] = system: ducksalad (Heteranthera limosa); experiment: Test B flooded paddy test, ducksalad; settings: Heteranthera limosa, read-out: Plant response rating, Ducksalad (0 to 100 scale, 0 is no effect, 100 is complete control)
[3] = system: barnyardgrass (Echinochloa crus-galli); experiment: Test A preemergence, barnyardgrass; format: in vivo; settings: Echinochloa crus-galli, pre-emergence, 240 h, 0 to 100 scale (0 no effect, 100 complete control), read-out: Plant response rating, Barnyardgrass; for pest or weed control at 31 g/ha: 31 g ai/ha; for pest or weed control at 125 g/ha: 125 g ai/ha
[4] = system: barnyardgrass (Echinochloa crus-galli); experiment: Test B flooded paddy test, barnyardgrass; settings: Echinochloa crus-galli, read-out: Plant response rating, Barnyardgrass (0 to 100 scale, 0 is no effect, 100 is complete control)
kochia (Kochia scoparia) [5] = experiment: Test A postemergence, kochia; format: in vivo; settings: Bassia scoparia, post-emergence, 240 h, 0 to 100 scale (0 no effect, 100 complete control), read-out: Plant response rating, Kochia; for pest or weed control at 31 g/ha: 31 g ai/ha; for pest or weed control at 125 g/ha: 125 g ai/ha
[6] = system: barnyardgrass (Echinochloa crus-galli); experiment: Test A postemergence, barnyardgrass; format: in vivo; settings: Echinochloa crus-galli, post-emergence, 240 h, 0 to 100 scale (0 no effect, 100 complete control), read-out: Plant response rating, Barnyardgrass; for pest or weed control at 31 g/ha: 31 g ai/ha; for pest or weed control at 125 g/ha: 125 g ai/ha
[7] = system: pigweed (Amaranthus retroflexus); experiment: Test A preemergence, pigweed; format: in vivo; settings: Amaranthus retroflexus, pre-emergence, 240 h, 0 to 100 scale (0 no effect, 100 complete control), read-out: Plant response rating, Pigweed; for pest or weed control at 31 g/ha: 31 g ai/ha; for pest or weed control at 125 g/ha: 125 g ai/ha
rice (Oryza sativa) = experiment: Test B flooded paddy test, rice; settings: Oryza sativa, read-out: Plant response rating, Rice (0 to 100 scale, 0 is no effect, 100 is complete control)
[8] = system: pigweed (Amaranthus retroflexus); experiment: Test A postemergence, pigweed; format: in vivo; settings: Amaranthus retroflexus, post-emergence, 240 h, 0 to 100 scale (0 no effect, 100 complete control), read-out: Plant response rating, Pigweed; for pest or weed control at 31 g/ha: 31 g ai/ha; for pest or weed control at 125 g/ha: 125 g ai/ha
[9] = system: foxtail, giant (giant foxtail, Setaria faberii); experiment: Test A preemergence, foxtail, giant; format: in vivo; settings: Setaria faberi, pre-emergence, 240 h, 0 to 100 scale (0 no effect, 100 complete control), read-out: Plant response rating, Foxtail, Giant; for pest or weed control at 31 g/ha: 31 g ai/ha; for pest or weed control at 125 g/ha: 125 g ai/ha
kochia (Kochia scoparia) [10] = experiment: Test A preemergence, kochia; format: in vivo; settings: Bassia scoparia, pre-emergence, 240 h, 0 to 100 scale (0 no effect, 100 complete control), read-out: Plant response rating, Kochia; for pest or weed control at 31 g/ha: 31 g ai/ha; for pest or weed control at 125 g/ha: 125 g ai/ha
corn (Zea mays) = experiment: Test A postemergence, corn; format: in vivo; settings: Zea mays, post-emergence, 240 h, 0 to 100 scale (0 no effect, 100 complete control); for Corn plant response rating (crop injury, 0 = no effect, 100 = complete kill) at 31 g/ha: 31 g ai/ha; for Corn plant response rating (crop injury, 0 = no effect, 100 = complete kill) at 125 g/ha: 125 g ai/ha
[11] = system: ryegrass, Italian (Italian ryegrass, Lolium multiflorum); experiment: Test A preemergence, ryegrass, Italian; format: in vivo; settings: Lolium multiflorum, pre-emergence, 240 h, 0 to 100 scale (0 no effect, 100 complete control), read-out: Plant response rating, Ryegrass, Italian; for pest or weed control at 31 g/ha: 31 g ai/ha; for pest or weed control at 125 g/ha: 125 g ai/ha
[12] = system: galium (catchweed bedstraw, Galium aparine); experiment: Test A postemergence, galium; format: in vivo; settings: Galium, post-emergence, 240 h, 0 to 100 scale (0 no effect, 100 complete control), read-out: Plant response rating, Galium; for pest or weed control at 31 g/ha: 31 g ai/ha; for pest or weed control at 125 g/ha: 125 g ai/ha
[13] = system: ryegrass, Italian (Italian ryegrass, Lolium multiflorum); experiment: Test A postemergence, ryegrass, Italian; format: in vivo; settings: Lolium multiflorum, post-emergence, 240 h, 0 to 100 scale (0 no effect, 100 complete control), read-out: Plant response rating, Ryegrass, Italian; for pest or weed control at 31 g/ha: 31 g ai/ha; for pest or weed control at 125 g/ha: 125 g ai/ha
[14] = system: ragweed (common ragweed, Ambrosia elatior); experiment: Test A postemergence, ragweed; format: in vivo; settings: Ambrosia artemisiifolia, post-emergence, 240 h, 0 to 100 scale (0 no effect, 100 complete control), read-out: Plant response rating, Ragweed; for pest or weed control at 31 g/ha: 31 g ai/ha; for pest or weed control at 125 g/ha: 125 g ai/ha
[15] = system: wheat (Triticum aestivum); experiment: Test A postemergence, wheat; format: in vivo; settings: Triticum aestivum, post-emergence, 240 h, 0 to 100 scale (0 no effect, 100 complete control), read-out: Plant response rating, Wheat; for plant injury at 31 g/ha: 31 g ai/ha; for plant injury at 125 g/ha: 125 g ai/ha
[16] = system: blackgrass (Alopecurus myosuroides); experiment: Test A postemergence, blackgrass; format: in vivo; settings: Alopecurus myosuroides, post-emergence, 240 h, 0 to 100 scale (0 no effect, 100 complete control), read-out: Plant response rating, Blackgrass; for pest or weed control at 31 g/ha: 31 g ai/ha; for pest or weed control at 125 g/ha: 125 g ai/ha

Row | SMILES | pest or weed control at 31 g/ha [1] | pest or weed control at 125 g/ha [1] | pest or weed control at 250 g/ha [2] | pest or weed control at 31 g/ha [3] | pest or weed control at 125 g/ha [3] | pest or weed control at 250 g/ha [4] | pest or weed control at 31 g/ha (kochia (Kochia scoparia) [5]) | pest or weed control at 125 g/ha (kochia (Kochia scoparia) [5]) | pest or weed control at 31 g/ha [6] | pest or weed control at 125 g/ha [6] | pest or weed control at 31 g/ha [7] | pest or weed control at 125 g/ha [7] | plant injury at 250 g/ha (rice (Oryza sativa)) | pest or weed control at 31 g/ha [8] | pest or weed control at 125 g/ha [8] | pest or weed control at 31 g/ha [9] | pest or weed control at 125 g/ha [9] | pest or weed control at 31 g/ha (kochia (Kochia scoparia) [10]) | pest or weed control at 125 g/ha (kochia (Kochia scoparia) [10]) | Corn plant response rating (crop injury, 0 = no effect, 100 = complete kill) at 31 g/ha (corn (Zea mays)) | further results
1 | FC(F)(F)CCCC1OCCc2cccc(Oc3ncc(Cl)cn3)c21 (stereo not drawn) [Compound 27, 5-Chloro-2-[[3,4-dihydro-1-(4,4,4-trifluorobutyl)-1H-2-benzopyran-8-yl]oxy]pyrimidine] | 0% | 0% | 95% | 10% | 80% | 0% | 10% | 10% | 20% | 30% | 30% | 50% | 0% | 50% | 70% | 50% | 100% | 0% | 0% | 20% | Corn plant response rating (crop injury, 0 = no effect, 100 = complete kill) at 125 g/ha (corn (Zea mays)): 30%; pest or weed control at 31 g/ha [11]: 0%; pest or weed control at 125 g/ha [11]: 20%; pest or weed control at 31 g/ha [12]: 40%; pest or weed control at 125 g/ha [12]: 80%; pest or weed control at 31 g/ha [13]: 10%; pest or weed control at 125 g/ha [13]: 40%; pest or weed control at 31 g/ha [14]: 0%; pest or weed control at 125 g/ha [14]: 10%; plant injury at 31 g/ha [15]: 0%; plant injury at 125 g/ha [15]: 10%; pest or weed control at 31 g/ha [16]: 20%; pest or weed control at 125 g/ha [16]: 40%
2 | O=C1Cc2cccc(Oc3ncc(Cl)cn3)c2C(CCC(F)(F)F)O1 (stereo not drawn) [Compound 28, 8-[(5-Chloro-2-pyrimidinyl)oxy]-1,4-dihydro-1-(3,3,3-trifluoropropyl)-3H-2-benzopyran-3-one] | 0% | 0% | 0% | 0% | 60% | 0% | 20% | 70% | 0% | 10% | 10% | 100% | 0% | 30% | 70% | 10% | 100% | 0% | 50% | 10% | Corn plant response rating (crop injury, 0 = no effect, 100 = complete kill) at 125 g/ha (corn (Zea mays)): 20%; pest or weed control at 31 g/ha [11]: 0%; pest or weed control at 125 g/ha [11]: 10%; pest or weed control at 31 g/ha [12]: 20%; pest or weed control at 125 g/ha [12]: 60%; pest or weed control at 31 g/ha [13]: 0%; pest or weed control at 125 g/ha [13]: 0%; pest or weed control at 31 g/ha [14]: 10%; pest or weed control at 125 g/ha [14]: 20%; plant injury at 31 g/ha [15]: 0%; plant injury at 125 g/ha [15]: 0%; pest or weed control at 31 g/ha [16]: 10%; pest or weed control at 125 g/ha [16]: 60%
